Results as given in article PMC3660367, “MARCKS Protein Is Phosphorylated and Regulates Calcium Mobilization during Human Acrosomal Exocytosis” (PLoS ONE, 2013).

Experiments:
[1] = tested on: phosphorylated MARCKS in human sperm; assay: Phosphorylated MARCKS level in stimulated sperm by Western blot (anti-phospho-MARCKS); assay type: cell-based; details: non-permeabilized capacitated sperm; 100 µM 2-APB 15 min, then 20 min 10 µM A23187, 200 nM PMA or 15 µM progesterone; normalized against β-tubulin; three experiments
Experimental: To examine the presence of MARCKS and phosphorylated MARCKS, the fraction of motile sperm capacitated for 2–3 h in BSA supplemented-HTF medium was used. After removing the HTF by washing cells twice with cold PBS, sperm pellets were resuspended in sample buffer (2% SDS, 10% glycerol, and 62.5 mM Tris-HCl pH 6.8) without disulfide reducing agents. Proteins were extracted by heating three times to 95°C for 4 min each. Extracts were centrifuged (12,000×g) for 10 min, and the supernatants were adjusted to 5% β-mercaptoethanol. Protein were resolved on 10% polyacrylamide gels according to [23], and transferred to PVDF membranes (Millipore). Non-specific reactivity was blocked by incubation for 1 h at room temperature (RT) with 5% skim milk dissolved in tris-buffered saline with 0.1% Tween-20 (T-TBS: 50 mM Tris-HCl pH 7.4, 150 mM NaCl, 0.1% Tween-20). Blots were incubated with primary anti-MARCKS antibody from Abcam (0.26 µg/ml), anti-MARCKS N-19 from Santa Cruz (0.13 µg/ml), or anti-phospho-MARCKS (0.06 µg/ml), in blocking solution overnight at 4°C. Biotinylated, goat anti-mouse-IgG (0.076 µg/ml), biotinylated, rabbit anti-goat-IgG (0.4 µg/ml) or biotinylated, goat anti-rabbit-IgG (0.076 µg/ml) were used as secondary antibodies during 60 min incubations at RT. Blots were then incubated with peroxidase-conjugated streptavidin (0.17 µg/ml) during 60 min incubations at RT. Excess first and second antibodies, and peroxidase-conjugated streptavidin were removed by washing five times for 10 min each in T-TBS. For loading control blots were reprobed with anti-β-tubulin. […]
Figure 5 Assessing MARCKS function on acrosomal exocytosis in non-permeabilized sperm. […] The increase in fluorescence is expressed as (F/F0)-1 ((maximum fluorescence intensity/initial fluorescence)-1) versus time in seconds. […] (D) Quantification of three independent experiments. […] Phosphorylated MARCKS was detected by Western blot assay using an anti-phospho-MARCKS antibody. […]

[2] = tested on: acrosomal exocytosis in permeabilized human sperm; assay: Acrosomal exocytosis assay in SLO-permeabilized human sperm (FITC-PSA lectin staining); assay type: cell-based; details: 1 µM MARCKS ED 15 min, then 50 µM PIP2 or 5 µM adenophostin, then 10 µM free Ca2+ or 200 nM PMA
Experimental: Acrosomal exocytosis assays were performed as previously described. Briefly, human semen obtained from normal healthy donors was allowed to liquefy for 30-60 min at 37°C. We used a swim-up protocol to isolate highly motile sperm under capacitating conditions in Human Tubal Fluid media (HTF, as formulated by Irvine Scientific, Santa Ana, CA) supplemented with 0.5% bovine serum albumin (BSA) for 1 h at 37°C in an atmosphere of 5% CO2/95% air. Sperm concentrations were adjusted to 5–10×10^6 cells/ml and incubated for at least 2 h under capacitating conditions. We have shown previously that human sperm incubated under these conditions are responsive to progesterone. […] Acrosomal status was evaluated by staining with FITC-coupled Pisum sativum agglutinin (FITC-PSA) according to [21]. At least 200 cells were scored using a Nikon Optiphot II microscope equipped with epifluorescence optics. […] For each experiment, acrosomal exocytosis indexes were calculated by subtracting the number of reacted spermatozoa in the negative control (range 10%–30%) from all values, and expressing the resulting values as a percentage of the acrosome exocytosis observed in the positive control (range 25%–40%). […] Data were evaluated using one-way ANOVA and post hoc tests (Dunnett's test or confident intervals). […]

Compound | increase of phosphorylated MARCKS [1] | rescue of MARCKS ED inhibition of acrosomal exocytosis [2]
CNc1ccc2oc(C[C@H]3O[C@@]4(CC[C@H]3C)O[C@H]([C@H](C)C(=O)c3ccc[nH]3)[C@H](C)C[C@H]4C)nc2c1C(=O)O [A23187] | 50% | –
CCCCCCCCCCCCCC(=O)O[C@@H]1[C@@H](C)[C@@]2(O)[C@@H](C=C(CO)C[C@]3(O)C(=O)C(C)=C[C@@H]23)[C@@H]2C(C)(C)[C@]12OC(C)=O [PMA, phorbol 12-myristate 13-acetate] | 60% | –
Nc1ncnc2c1ncn2[C@@H]1O[C@H](CO)[C@@H](O[C@H]2O[C@H](CO)[C@@H](OP(=O)(O)O)[C@H](OP(=O)(O)O)[C@H]2O)[C@H]1OP(=O)(O)O [adenophostin, Adenophostin A] | – | rescued exocytosis impaired by MARCKS ED
CC(=O)[C@H]1CC[C@H]2[C@@H]3CCC4=CC(=O)CC[C@]4(C)[C@H]3CC[C@]12C [progesterone] | 40% | –
Phosphatidylinositol 4, 5-bisphosphate [PIP2] | – | able to recover the MARCKS ED inhibition
